According to patent publication US10031142B2, “In situ chemiluminescent substrates and assays” (Life Technologies Corporation, priority 2010, dated 2018):
Read-outs that look alike come from different tables or passages of the source.

How the values were obtained:
alkaline phosphatase [1] = conditions: TBQ, 37° C., 25 minutes
Description: The following reagents were used for this: • 0.1M aminomethylpropanol buffer, pH 9.5 (AMP Buffer), • CDP-Star® (CDP*, Life Technologies): 6.2 mg/mL (12.5 mM) in AMP Buffer, • ADP-Star® (ADP*, Life Technologies): 1 mg/mL (2.2 mM) in 0.1M AMP Buffer, • ADP*-EE Oxidation mixture: 1 mg/mL (2.3 mM) in 0.1M AMP Buffer, • TBQ: 10× Sapphire II™ chemiluminescence enhancer (Life Technologies), and • Alkaline Phosphatase stock (AP): 8 ng/mL (from 17.4 mg/mL concentrate).
10 μL ADP* or ADP*-EE Oxidation mixture (0.22 or 0.23 mM, respectively), 10 μL TBQ, 80 μL AMP Buffer and 10 μL AP were combined and the luminescence from the mixture was measured continuously at 37° C. for 25 minutes. 1.6 μL CDP* (0.2 mM), 10 μL TBQ, 80 μL AMP Buffer and 10 μL AP were combined and the luminescence from the mixture was measured continuously at 37° C. for 25 minutes.

[2] = Thermal stability of aqueous solutions of reagents; type: physicochemical
Description: The thermal stabilities of aqueous solutions AMPPD®, AMPPD enol ether phosphate (AMPPD-EE) and AMPPD-EE in the presence of Na2MoO4 were examined.

alkaline phosphatase [3] = conditions: in the presence of Sapphire II enhancer
Description: Benchmarking experiments compared the light emission (in RLUs) and signal to noise (S:N) of in situ ADP-Star with control dioxetanes CSPD®, ADP-Star®, and CDP-Star®.

alkaline phosphatase [4] = system: alkaline phosphatase
Description: Before developing assay conditions with Method B in situ dioxetane generation, we investigated whether the reagents from the oxidation system adversely affected alkaline phosphatase activity. […] Any quenching effects from a singlet oxygen generation/reaction system may be enzyme-specific, and would have to be evaluated for any enzyme/detection substrate pair.

[5] = cited from earlier work

## COC(=C1C2CC3CC(C2)CC1C3)c1ccc(Cl)c(OP(=O)([O-])[O-])c1.[Na+].[Na+] [ADP-Star enol ether phosphate]
Alkaline phosphatase [1]
  light emission compared with CDP-Star dioxetane control: higher light emission

## COC(=C1C2CC3CC(C2)CC1C3)c1cccc(OP(=O)([O-])[O-])c1.[Na+].[Na+] [AMPPD-EE]
[2]; 1 month, 55° C.
  Stability/Storage Conditions (loss): Minimal loss in 1 month, 55 °C
[2]; aqueous solution, 40° C. over 4+ months
  thermal decomposition: virtually no thermal decomposition
[2]; aqueous solution, 55° C. over 5+ months
  thermal decomposition: minimal thermal decomposition
[2]; in the presence of Na2MoO4 at 40° C.
  thermal decomposition: no thermal decomposition

## COC1(c2cccc(OP(=O)(O)O)c2)OOC12C1CC3CC(C1)CC2C3 (stereo not drawn) [AMPPD®, reference compound]
[2]; aqueous solution, 40° C.
  thermal half-life: ~40 days
[2]; aqueous solution, 55° C.
  thermal half-life: ~10 days

## COC1(c2cccc(OP(=O)(O)O)c2)OOC12C1CC3CC2CC(Cl)(C3)C1 (stereo not drawn) [CSPD®]
Alkaline phosphatase [3]
  time reaching glow (maximum light emission): 30 min

## OO [hydrogen peroxide]
Alkaline phosphatase [4]
  effect on alkaline phosphatase activity: does not affect alkaline phosphatase activity
[5]; 35% soln, 1 yr, 25° C.
  Stability/Storage Conditions: >99.3% in 1 yr, 25° C.;
[5]; 35% soln, 24 hr, 100° C.
  Stability/Storage Conditions: ≥96.0% in 24 hr, 100 °C

## [Na+].[Na+].[O]=[Mo](=[O])([O-])[O-] [sodium molybdate]
Alkaline phosphatase [4]; AMPPD substrate, TBQ enhancer, 37° C., 30 minutes
  effect on alkaline phosphatase activity: significantly quenches alkaline phosphatase activity
Alkaline phosphatase [4]; AMPPD substrate, various amounts of Na2MoO4 stock, 37° C.
  light reduction (quenching of alkaline phosphatase activity): up to 85%
Alkaline phosphatase [4]; sodium molybdate <1 mM
  alkaline phosphatase activity on lowering concentration: restores most of the alkaline phosphatase activity
[5]; solid
  Stability/Storage Conditions: “Stable under ordinary conditions of use &
